Data from patent US12370202B2, “Methods and compositions for inhibiting the NLRP3 inflammasome and/or LON protease” (TRITERPENOID THERAPEUTICS, INC., priority 2019, dated 2025).

Key:
5T33MM cells = experiment: MM cell proliferation (confluence), IncuCyte imaging; assay type: cell-based, murine; conditions: 72 hours
Experimental: (§1) FIG. 2 is a bar graph. CDDO-2P-Im inhibits proliferation of multiple myeloma cell line in vitro. 5T33MM, RPMI8226, and ARH77 cells were seeded in 96-well plates and incubated with CDDO-2P-Im (50 nM-150 nM). Confluence (cell proliferation) was measured using IncuCyte imaging after 72 hours. *p<0.01 compared to control.
(§2) FIG. 3 is a bar graph. […] Shown here are results for 5T33MM (50 nM TTX01/7.5 nM IXZ); RPMI8226 (100 nM TTX01/7.5 nM IXZ); and ARH77 (150 nM TTX01/10 nM IXZ). Confluence (cell proliferation) was measured using IncuCyte imaging after 72 hours.
(§3) To examine tumor-intrinsic effects of CDDO-2P-IM in the 5T33MM cell line and in human MM cells, conducted a series of in vitro studies was conducted. For these experiments, 96-well plates were first coated in poly-L-ornithine before cells were seeded (in triplicate), including the murine 5T33MM and the human RPMI8226, and ARH77 cell lines (15,000 cells per well). Cells were incubated in IncuCyte™ Live-Cell Analysis System for 72 hours (images were taken every 4 hours). To define dose-dependent effect of CDDO-2P-IM, cells were exposed to concentrations ranging from 50 nM to 150 nM. To examine potential synergy of CDDO-2P-IM with IXZ, MM cells were exposed to IXZ (7 nM-10 nM) either alone or in combination with CDDO-2P-IM.

ARH77 cells = experiment: as above; assay type: cell-based, human; conditions: 72 hours
Experimental: as §1, §2, §3

RPMI8226 cells = experiment: as above; assay type: cell-based, human; conditions: 72 hours
Experimental: as §1, §2, §3

NLRP3 inflammasome = NLRP3 inflammasome activation in LPS-primed BMDM, IL-1β ELISA; assay type: cell-based, mouse
Experimental: FIG. 4A depicts an experimental design and FIG. 4B is a bar graph. Ixazomib (IXZ) potentiation of NLRP3 inflammasome activation inhibited by CDDO-2P-Im. Bone marrow derived macrophages (BMDM) were treated with Ixazomib (IXZ) and LPS (100 ng/ml) for 20 hours. Primed-BMDM were treated with CDDO-2P-Im (100 nM) for 15 min, followed by stimulation of ATP (5 mM) for 45 min. Supernatant were analyzed by ELISA for IL-1β release.
FIG. 6 is a set of bar graphs. CDDO-Im, CDDO-2P-Im (right panel), and CDDO-3P-Im (left panel) inhibit IL-1β production by NLRP3 inflammasome activation. LPS primed-BMDM were treated with different doses of CDDO-Im, CDDO-2P-Im, or CDDO-3P-Im for 15 min before ATP (5 mM) was added for 45 min. Supernatant were analyzed by ELISA for IL-1β.
To explore the potential that CDDO-2P-IM may enhance the MM response to proteasome inhibitors via inhibition of inflammasome activity, the effect of CDDO-2P-IM on activation of the NLRP3 complex (as defined by IL-1β production), in the presence or absence of IXZ in primary mouse bone marrow derived macrophages (BMDM) was evaluated. In the experiment, BMDM were primed by lipopolysaccharide (LPS) in the presence or absence of IXZ for 4 hours, followed by a brief ([…]) exposure to CDDO-2P-IM after which inflammasome activation was triggered by ATP.
The effects of the pyridyl derivatives of CDDO-IM, (specifically, CDDO-2P-Im and CDDO-3P-Im) on NLRP3 inflammasome activation were tested in mouse BMDMs. Cells were first primed with LPS for 4 hours, then pretreated with specific doses of either CDDO-Im, CDDO-2P-IM or CDDO-3P-Im (30-1000 nM) for 15 min before ATP was added for another 45 min. CDDO-Im and its pyridyl derivatives inhibited the amount of caspase-p10 (an auto-processed fragment of caspase-1) released into cell culture supernatants in a dose-dependent manner as measured by Western blot (FIG. 5). […] The effect on caspase-1 activation is specific for the NLRP3 inflammasome as the AIM2 inflammasome activation by poly(dA:dT) was not inhibited by the synthetic CDDO-Im derivatives (data not shown).

brain tumor cell lines = experiment: Radiation response of brain tumor cell lines in vitro; assay type: cell-based
CCL2 = CCL2 expression in LPS-stimulated human macrophages, RT-qPCR; assay type: cell-based; conditions: 500 pM, 16 hours pretreatment, then 10 ng/ml LPS 24 hours
Experimental: FIG. 10 is a bar graph. CDDO-Me, CDDO-Im, CDDO-2P-Im, and CDDO-3P-Im inhibit expression of CCL2 in human macrophages at picomolar concentrations.
Human peripheral blood monocytes were isolated using CD14 magnetic beads and differentiated with 20 ng/ml M-CSF for with 5 days and pretreated or not with 300 nM CDDO-Me; 500 pM CDDO-Im; 500 pM CDDO-2p-Im; 500 pM CDDO-3p-Im for 16 hours, followed by stimulation with 10 ng/ml LPS for an additional 24 hours. Total RNA was extracted and analyzed by RT-qPCR (Tagman) for cytokine expression.

[1] = Drug levels in brain after systemic dosing, HPLC/Mass Spec; assay type: in vivo, Mice
Experimental: Mice (3 per group) were treated with single intraperitoneal (i.p.) doses of either 1 micromole (low dose) or 2 micromoles (high dose) of CDDO-2P-Im in DMSO. Brains were analyzed either 3 or 6 hours after dosing. Brains were homogenized in saline, then extracted with acetonitrile, and the extracts subjected to HPLC/Mass Spec analysis, using appropriate standard curves from spiked homogenates. Values obtained (in nanomoles/kg of brain) were: 270+/−80 (low dose, 3 hours); 300+/−90 (low dose, 6 hours); 2,600+/−2,200 (high dose, 3 hours); and 540+/−260 (high dose, 6 hours).
A second experiment with oral or i.p. dosing of 1 micromole of CDDO-2P-Im, and analysis at 6 hours, confirmed the above results, with drug levels in brain ranging from 140 to 900 nanomoles/kg of brain in 10 different samples from cerebral cortex.

In the case of CC1(C)CC[C@]2(C(=O)n3cnc(-c4ccccn4)c3)CC[C@]3(C)[C@H](C(=O)C=C4[C@@]5(C)C=C(C#N)C(=O)C(C)(C)[C@@H]5CC[C@]43C)[C@@H]2C1 [CDDO-2P-Im, 1-[2-Cyano-3,12-dioxooleana-1,9(11)-dien-28-oyl]-4(-pyridin-2-yl)-1H-imidazole], the “proliferation (confluence), combination with IXZ” value (from here on “proliferation … with IXZ”) (5T33MM cells; 50 nM TTX01/7.5 nM IXZ) is reported as “act synergistically”, the “proliferation (confluence), agent added alone” value (5T33MM cells; 50 nM TTX01 or 7.5 nM IXZ alone) is reported as “only partially effective” and the “proliferation (confluence)” value (5T33MM cells; 50 nM-150 nM) is reported as “significant dose-dependent suppressive effects”. For the same compound, the “proliferation (confluence)” value (ARH77 cells; 50 nM-150 nM) was “significant dose-dependent suppressive effects”, the “proliferation … with IXZ” value (ARH77 cells; 150 nM TTX01/10 nM IXZ) was “act synergistically” and the “proliferation (confluence), agent added alone” value (ARH77 cells; 150 nM TTX01 or 10 nM IXZ alone) was “only partially effective”. For the same compound, the “proliferation (confluence)” value (RPMI8226 cells; 50 nM-150 nM) was “significant dose-dependent suppressive effects”, the “proliferation … with IXZ” value (RPMI8226 cells; 100 nM TTX01/7.5 nM IXZ) was “act synergistically” and the “proliferation (confluence), agent added alone” value (RPMI8226 cells; 100 nM TTX01 or 7.5 nM IXZ alone) was “only partially effective”. For the same compound, the “IL-1β release, IXZ potentiation of NLRP3 inflammasome activation” value (NLRP3 inflammasome; BMDM primed with IXZ and LPS, CDDO-2P-Im 100 nM 15 min before ATP (5 mM) 45 min) was “inhibited”, the “NLRP3 inflammasome activation (IL-1β production)” value (NLRP3 inflammasome; BMDM primed with LPS in absence of IXZ, ATP trigger) was “direct suppression” and the “IL-1β production by NLRP3 inflammasome activation” value (NLRP3 inflammasome; LPS primed BMDM, different doses (30-1000 nM) 15 min before ATP (5 mM) 45 min, ELISA) was “inhibit”. For the same compound, the radiation response (brain tumor cell lines) was “enhances radiation response”, the “expression of CCL2” value (CCL2) was “inhibit” and the level in brain ([1]; single i.p. 1 micromole (low dose) in DMSO, 3 hours) was 270+/−80 nanomoles/kg of brain. For the same compound, the level in brain ([1]; single i.p. 1 micromole (low dose) in DMSO, 6 hours) was 300+/−90 nanomoles/kg of brain, the level in brain ([1]; single i.p. 2 micromoles (high dose) in DMSO, 3 hours) was 2,600+/−2,200 nanomoles/kg of brain and the level in brain ([1]; single i.p. 2 micromoles (high dose) in DMSO, 6 hours) was 540+/−260 nanomoles/kg of brain.
